Values quoted from earlier work in patent publication US20070196465A1, “Treatment with dihydropyridine calcium channel blockers and omega-3 fatty acids and a combination product thereof” (priority 2005, published 2007).

Tests used:
cells = settings: dihydropyridine alone
L-type Ca^2+ channel = settings: dihydropyridine alone
heart = settings: Finkel et al. 1992

SMILES | effect on calcium influx / cytosolic free calcium and cell contraction (cells) | effect on peak L-type Ca2+ channel current, cytosolic Ca2+ and cell contraction (L-type Ca^2+ channel) | inotropic effect (heart)
COC(=O)C1=C(C)NC(C)=C([N+](=O)[O-])C1c1ccccc1C(F)(F)F (stereo not shown) [Bay K 8644] | increases in calcium influx and the contracture of cells | significantly increases peak L-type Ca^2+ channel current, cytosolic Ca^2+, and cell contraction | concentration-dependent positive inotrope
CCCCC/C=C\C/C=C\C/C=C\C/C=C\CCCC(=O)O [arachidonic acid] |  |  | concentration-dependent negative inotropes
